Earlier results as cited in patent US9382233B2, “Forms of vilazodone and processes for the preparation thereof” (APOTEX INC., priority 2012, dated 2016).

Settings: benzyl alcohol and its equivalents (benzoic acid, benzoate salts, benzaldehyde, benzyl acetate and benzyl benzoate); World Health Organization (JECFA, 2001)

OCc1ccccc1 [benzyl alcohol]
acceptable daily intake (ADI): 5 mg/kg
